Measurements taken from PubChem BioAssay AID1963851 (Molecular Pharmacology Branch, DTP, NCI, 2024).

Test system: 188146-221-R-J1-PDC complex spheroid viability
Test: Anticancer human tumor 188146-221-R-J1-PDC patient-derived colon adenocarcinoma cell line growth inhibition [POLQ]
Conditions: for IC50: curve of first compound; for viability, T/C: stronger effect = lower value; active = viability on the fitted dose curve at most 10% of control; inactive = the rest
Outline: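 Patient-derived tumour cells were co-cultured with HUVEC and mesenchymal stem cells as multicellular spheroids at 37 °C. They were treated with POLQ inhibitors (novobiocin, ART-558, RP6685) alone or combined with other agents. Top concentrations were at or near clinical Cmax (otherwise 10 microM; SN-38 at 1 microM), decreasing in half-log steps.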

[1] = second compound 0.0316 µM, first compound 0.0316 µM
[2] = second compound 0.0316 µM, first compound 0.1 µM
[3] = second compound 0.0316 µM, first compound 0.316 µM
[4] = second compound 0.0316 µM, first compound 1 µM
[5] = second compound 0.0316 µM, first compound 3.16 µM
[6] = second compound 0.0316 µM, first compound 10 µM
[7] = second compound 0.1 µM, first compound 0.0316 µM
[8] = second compound 0.1 µM, first compound 0.1 µM
[9] = second compound 0.1 µM, first compound 0.316 µM
[10] = second compound 0.1 µM, first compound 1 µM
[11] = second compound 0.1 µM, first compound 3.16 µM
[12] = second compound 0.1 µM, first compound 10 µM
[13] = second compound 0.316 µM, first compound 0.0316 µM
[14] = second compound 0.316 µM, first compound 0.1 µM
[15] = second compound 0.316 µM, first compound 0.316 µM
[16] = second compound 0.316 µM, first compound 1 µM
[17] = second compound 0.316 µM, first compound 3.16 µM
[18] = second compound 0.316 µM, first compound 10 µM
[19] = second compound 1 µM, first compound 0.0316 µM
[20] = second compound 1 µM, first compound 0.1 µM
[21] = second compound 1 µM, first compound 0.316 µM
[22] = second compound 1 µM, first compound 1 µM
[23] = second compound 1 µM, first compound 3.16 µM
[24] = second compound 1 µM, first compound 10 µM
[25] = second compound 3.16 µM, first compound 0.0316 µM
[26] = second compound 3.16 µM, first compound 0.1 µM
[27] = second compound 3.16 µM, first compound 0.316 µM
[28] = second compound 3.16 µM, first compound 1 µM
[29] = second compound 3.16 µM, first compound 3.16 µM
[30] = second compound 3.16 µM, first compound 10 µM
[31] = second compound 10 µM, first compound 0.0316 µM
[32] = second compound 10 µM, first compound 0.1 µM
[33] = second compound 10 µM, first compound 0.316 µM
[34] = second compound 10 µM, first compound 1 µM
[35] = second compound 10 µM, first compound 3.16 µM
[36] = second compound 10 µM, first compound 10 µM
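Also: spheroids exposed to compounds for seven days.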
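For viability, T/C in this document: 100% = DMSO vehicle control viability.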

CCc1cc2c(N3CCc4c(cc(Cn5ccnc5)cc4-c4cn(C)nc4C(F)(F)F)C3=O)cc(C)nc2c(OC)n1 + COC1C(OC(N)=O)C(O)C(Oc2ccc3c(O)c(NC(=O)c4ccc(O)c(CC=C(C)C)c4)c(=O)oc3c2C)OC1(C)C
inactive: viability, T/C [1] 112% | viability, T/C [2] 102% | viability, T/C [3] 92.1% | viability, T/C [4] 88.1% | viability, T/C [5] 66.3% | viability, T/C [6] 42.8% | viability, T/C [7] 108% | viability, T/C [8] 101% | viability, T/C [9] 97.7% | viability, T/C [10] 85.4% | viability, T/C [11] 66.4% | viability, T/C [12] 55.9% | viability, T/C [13] 106% | viability, T/C [14] 108% | viability, T/C [15] 105% | viability, T/C [16] 83.3% | viability, T/C [17] 62.4% | viability, T/C [18] 48.2% | viability, T/C [19] 108% | viability, T/C [20] 108% | viability, T/C [21] 101% | viability, T/C [22] 83.2% | viability, T/C [23] 64.2% | viability, T/C [24] 53.2% | viability, T/C [25] 104% | viability, T/C [26] 114% | viability, T/C [27] 103% | viability, T/C [28] 89.2% | viability, T/C [29] 73.9% | viability, T/C [30] 51.1% | viability, T/C [31] 97.5% | viability, T/C [32] 98% | viability, T/C [33] 101% | viability, T/C [34] 78.5% | viability, T/C [35] 60.2% | viability, T/C [36] 43.2%
9.01 µM: IC50 (second compound 0.316 µM)
6.16 µM: IC50 (second compound 10 µM)
7.26 µM: IC50 (second compound 0.0316 µM)
> 10 µM: IC50 (second compound 0.1 µM) | IC50 (second compound 1 µM) | IC50 (second compound 3.16 µM)

CCc1cc2c(N3CCc4c(cc(Cn5ccnc5)cc4-c4cn(C)nc4C(F)(F)F)C3=O)ccnc2c(OC)n1 + COC1C(OC(N)=O)C(O)C(Oc2ccc3c(O)c(NC(=O)c4ccc(O)c(CC=C(C)C)c4)c(=O)oc3c2C)OC1(C)C
inactive: viability, T/C [1] 107% | viability, T/C [2] 93.5% | viability, T/C [3] 99.2% | viability, T/C [4] 96.2% | viability, T/C [5] 67.6% | viability, T/C [6] 46.8% | viability, T/C [7] 117% | viability, T/C [8] 108% | viability, T/C [9] 107% | viability, T/C [10] 99.7% | viability, T/C [11] 66.3% | viability, T/C [12] 62.6% | viability, T/C [13] 103% | viability, T/C [14] 108% | viability, T/C [15] 98.1% | viability, T/C [16] 93.7% | viability, T/C [17] 68.7% | viability, T/C [18] 49.9% | viability, T/C [19] 103% | viability, T/C [20] 97.2% | viability, T/C [21] 104% | viability, T/C [22] 104% | viability, T/C [23] 58.5% | viability, T/C [24] 44.7% | viability, T/C [25] 105% | viability, T/C [26] 111% | viability, T/C [27] 102% | viability, T/C [28] 83% | viability, T/C [29] 82.8% | viability, T/C [30] 55.3% | viability, T/C [31] 108% | viability, T/C [32] 95.6% | viability, T/C [33] 108% | viability, T/C [34] 85.5% | viability, T/C [35] 67.8% | viability, T/C [36] 59%
9.83 µM: IC50 (second compound 0.316 µM)
> 10 µM: IC50 (second compound 0.1 µM) | IC50 (second compound 3.16 µM) | IC50 (second compound 10 µM)
6.45 µM: IC50 (second compound 1 µM)
8.38 µM: IC50 (second compound 0.0316 µM)

COc1cc2cc(C(=O)CCC(=O)O)sc2cc1OC + COC1C(OC(N)=O)C(O)C(Oc2ccc3c(O)c(NC(=O)c4ccc(O)c(CC=C(C)C)c4)c(=O)oc3c2C)OC1(C)C
> 10 µM: IC50 (second compound 0.0316 µM) | IC50 (second compound 0.1 µM) | IC50 (second compound 0.316 µM) | IC50 (second compound 1 µM) | IC50 (second compound 3.16 µM) | IC50 (second compound 10 µM)
inactive: viability, T/C [1] 108% | viability, T/C [2] 107% | viability, T/C [3] 107% | viability, T/C [4] 111% | viability, T/C [5] 107% | viability, T/C [6] 98% | viability, T/C [7] 105% | viability, T/C [8] 98.3% | viability, T/C [9] 99.9% | viability, T/C [10] 99.8% | viability, T/C [11] 92.9% | viability, T/C [12] 98.3% | viability, T/C [13] 103% | viability, T/C [14] 107% | viability, T/C [15] 99.7% | viability, T/C [16] 94.9% | viability, T/C [17] 95.6% | viability, T/C [18] 93% | viability, T/C [19] 101% | viability, T/C [20] 96.8% | viability, T/C [21] 83.6% | viability, T/C [22] 100% | viability, T/C [23] 101% | viability, T/C [24] 101% | viability, T/C [25] 102% | viability, T/C [26] 94.1% | viability, T/C [27] 95.7% | viability, T/C [28] 84.3% | viability, T/C [29] 114% | viability, T/C [30] 108% | viability, T/C [31] 105% | viability, T/C [32] 92% | viability, T/C [33] 108% | viability, T/C [34] 101% | viability, T/C [35] 111% | viability, T/C [36] 109%

COc1ccc([C@@H](O)c2cc(-c3ncnc4cc(N5CCOCC5)ccc34)c(F)cc2Cl)nn1 + COC1C(OC(N)=O)C(O)C(Oc2ccc3c(O)c(NC(=O)c4ccc(O)c(CC=C(C)C)c4)c(=O)oc3c2C)OC1(C)C
4.19 µM: IC50 (second compound 0.0316 µM)
5.36 µM: IC50 (second compound 10 µM)
5.75 µM: IC50 (second compound 3.16 µM)
4.27 µM: IC50 (second compound 0.316 µM)
inactive: viability, T/C [1] 105% | viability, T/C [2] 95.4% | viability, T/C [3] 81.4% | viability, T/C [4] 76.8% | viability, T/C [5] 61.2% | viability, T/C [6] 27.1% | viability, T/C [7] 92.8% | viability, T/C [8] 89.3% | viability, T/C [9] 96.2% | viability, T/C [10] 84.6% | viability, T/C [11] 65.3% | viability, T/C [12] 36.3% | viability, T/C [13] 107% | viability, T/C [14] 91.3% | viability, T/C [15] 102% | viability, T/C [16] 83.4% | viability, T/C [17] 58.7% | viability, T/C [18] 26.2% | viability, T/C [19] 96% | viability, T/C [20] 96.9% | viability, T/C [21] 97.5% | viability, T/C [22] 83.2% | viability, T/C [23] 65.3% | viability, T/C [24] 28.1% | viability, T/C [25] 108% | viability, T/C [26] 95.8% | viability, T/C [27] 97.8% | viability, T/C [28] 84.3% | viability, T/C [29] 72.1% | viability, T/C [30] 31.4% | viability, T/C [31] 108% | viability, T/C [32] 84.5% | viability, T/C [33] 113% | viability, T/C [34] 63.4% | viability, T/C [35] 75.7% | viability, T/C [36] 30%
5.77 µM: IC50 (second compound 0.1 µM)
5.01 µM: IC50 (second compound 1 µM)
